Common to all, as to assay type: biochemical
The target of assay [1] is T1, human plasma type α1,3FucT (Homo sapiens, UniProt Q11128).
T1 sequence (Q11128 1-374): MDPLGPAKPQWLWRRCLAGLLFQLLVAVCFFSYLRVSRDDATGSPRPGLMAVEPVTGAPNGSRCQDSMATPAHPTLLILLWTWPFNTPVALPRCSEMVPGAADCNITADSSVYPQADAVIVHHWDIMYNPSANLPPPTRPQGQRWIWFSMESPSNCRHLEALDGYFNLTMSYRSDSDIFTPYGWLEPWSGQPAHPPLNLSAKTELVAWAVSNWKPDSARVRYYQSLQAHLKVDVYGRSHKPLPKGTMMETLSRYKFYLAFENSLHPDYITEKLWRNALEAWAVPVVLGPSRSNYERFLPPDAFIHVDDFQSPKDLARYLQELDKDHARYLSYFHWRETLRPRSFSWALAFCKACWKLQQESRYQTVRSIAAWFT
The assay is described as follows: Substrate specificity and inhibition study of α1,3FucT (GDP-14C-Fuc transfer assay). The conditions noted are these: 0.1 mM GDP-Fuc. As to the method:
The assay procedure was essentially the same as described previously [Fukowska-Latallo et al, Gene & Development, 4:1288 (1990)] with some modifications. A stock mixture containing 0.25 mM GDP-^14C-Fuc (5000 cpm/mL), 6.25 mM ATP, 25 mM MnCl2 and 62.5 mM sodium cacodylate buffer, pH 6.2 was mixed freshly and kept on ice. […] The incubation was carried out at 37° C. for 30 to 240 minutes depending upon the acceptor under study. Separate assays in the absence of acceptor were used to correct for background hydrolysis of GDP-Fuc. Upon completion of incubation, 400 μL of a 25 percent (v/v) suspension of QAE-Sephadex was added. […] From the supernatant fluid, 200 μL were extracted and mixed with 10 mL of scintillation cocktail. The radioactivity was counted on a scintillation counter. […] This assay can be run in the absence of ATP.

A further assay has as its target T2, α2,3SiaT (Rattus norvegicus, UniProt Q02734).
T2 construct: fusion protein between the pre-insulin signal peptide and the catalytic domain of the sialyltransferase; pre-insulin signal peptide (N); made in house; host or cells: Sf-9 insect cells (baculovirus rBv2,3ST), secreted into the medium
T2 sequence (Q02734 48-374 limits assumed): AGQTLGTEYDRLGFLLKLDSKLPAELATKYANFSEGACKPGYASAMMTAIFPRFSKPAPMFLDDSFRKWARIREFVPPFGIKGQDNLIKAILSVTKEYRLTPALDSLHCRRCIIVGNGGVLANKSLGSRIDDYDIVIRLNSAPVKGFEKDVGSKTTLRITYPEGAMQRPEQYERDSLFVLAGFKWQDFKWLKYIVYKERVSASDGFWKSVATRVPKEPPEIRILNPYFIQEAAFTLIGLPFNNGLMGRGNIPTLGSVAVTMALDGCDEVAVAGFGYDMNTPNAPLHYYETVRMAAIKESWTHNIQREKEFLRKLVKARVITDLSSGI
Put plainly: Enzymatic sialylation with α2,3sialyltransferase. The source says: Sialylation A multienzyme system for sialylation starts with NeuAc, [Gal-1-^13C]-LacNAcβOallyl, PEP, and catalytic amounts of ATP and CMP, as is shown in Scheme 16, below. CMP was converted to CDP by nucleoside monophosphate kinase (EC 2.7.4.4, NMK) in the presence of ATP, which was regenerated from its byproduct ADP catalyzed by PK in the presence of PEP, then to CTP with PEP by PK. The CTP was then reacted with NeuAc with CMP-NeuAc synthetase (EC 2.7.7.43) to produce CMP-NeuAc. The byproduct, PPi was hydrolyzed to Pi by PPase. Sialylation of LacNAcβOallyl was accomplished with CMP-NeuAc and α2,3sialyltransferase (α2,3SiaT; EC 2.4.99.6). The released CMP was again converted to CDP, CTP, and finally to CMP-NeuAc. Using this system, [Gal-1-^13C]NeuAcα2,3Galβ1,4GlcNAcβOallyl (Compound 42) as well as the unlabelled trisaccharide were prepared.
A solution of Compound 1-^13C-41 (210 mg, […]), NeuAc (160 mg, […]), PEP Na3 salt (120 mg, 0.51 mmol), MgCl2.6H2O (20 mg, 0.10 mmol), MnCl2.4H2O (4.9 mg, 0.025 mmol), KCl (7.5 mg, 0.10 mmol), CMP (16 mg, 0.05 mmol), ATP (2.7 mg, […]) and mercaptoethanol (0.34 mL) in HEPES buffer (200 mM, pH 7.5; 3.5 mL) was adjusted with N NaOH to pH 7.5 and the enzymes, NMK (5 U), PK (100 U), PPase (10 U), CMP-NeuAc synthetase (0.4 U) and α2,3SiaT (0.1 U) were added to the solution. […]

A further assay addresses T3, GalT (Bos taurus, UniProt P08037).
T3 construct: purchased Sigma
T3 sequence (P08037 79-402 limits assumed): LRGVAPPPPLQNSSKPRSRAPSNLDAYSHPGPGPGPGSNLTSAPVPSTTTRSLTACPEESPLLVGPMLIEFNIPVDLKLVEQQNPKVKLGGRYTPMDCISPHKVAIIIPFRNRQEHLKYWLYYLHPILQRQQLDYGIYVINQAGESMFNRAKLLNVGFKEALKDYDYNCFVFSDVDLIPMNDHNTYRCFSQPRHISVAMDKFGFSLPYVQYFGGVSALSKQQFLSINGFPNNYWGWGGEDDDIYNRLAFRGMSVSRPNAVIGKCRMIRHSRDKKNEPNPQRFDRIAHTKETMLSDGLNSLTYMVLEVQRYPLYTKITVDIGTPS
Put plainly: Kinetic study of GalT (rate of LacNAc formation, UDP-14C-Gal). The conditions noted are these: 100 mM cacodylate pH 7.5, 9.3 mM Mn2+, 0.1 mM UDP-Gal, 20° C. As to the method: Initial velocities of the enzyme reaction were determined by measuring the rate of LacNAc formation with a slight modification of the assay by Pierce et al. [Pierce et al., Anal. Biochem., 102:441 (1980)]. All the reactions were carried out in 100 mM cacodylate buffer (pH 7.5) with fixed concentrations of Mn^2+ (9.3 mm) and UDP-Gal (0.1 mM; 58.5 cpm/pmol of UDP-^14C-Gal) in […] of solution. The reaction was initiated by the addition of GalT (0.05 U, […]; from Sigma) and permitted to stand at 20° C. for 30 minutes. Nonspecific hydrolysis of UDP-Gal was measured by the control reaction in the absence of GalT. The reaction was stopped by passing through a column of QAE-Sephadex ([…]), and eluted by gentle air pressure to remove the unreacted UDP-Gal. The reaction vial was rinsed twice with […] of water each and passed through the resin column. The filtrates were collected and directly transferred into a scintillation vial. The scintillation fluid was added to the vial, and then radioactivity was counted by a liquid scintillation counter. […] Res., 159:315 (1987)] and Ki (0.46±0.06 mM) for UDP. Similarly, IC50 value of UDP for GalT was determined using different concentration of UDP.

Regarding `OC[C@H]1O[C@@H](O[C@H]2[C@H](O)C=CO[C@@H]2CO)[C@H](O)[C@@H](O)[C@H]1O` [Galβ1,4Glucal], in assay [1] (10 mM Mn2+ and 10 mM LacNAc at pH 6.2 and 37° C.), the IC50 (commonly the concentration that gives 50% inhibition) is more than 50000 µM. Further, in assay [1] (10 mM MnCl2 and 10 mM Galβ1,4GlcNAc, Galβ1,4GlcNAc = 100), the “Vrel (relative maximal velocities)” value came to 10. Also, the “substrate for α2,3SiaT (in words)” value on α2,3SiaT was “good substrate”.

Turning to `O=c1ccn([C@@H]2O[C@H](COP(=O)(O)OP(=O)(O)O)[C@@H](O)[C@H]2O)c(=O)[nH]1` [UDP, uridine 5′-diphosphate], the Ki – broadly, a measure of affinity in units of concentration, obtained from inhibition or displacement – at GalT is 460 µM.
